Patent US10710986B2, “PD-1/PD-L1 inhibitors” (Gilead Sciences, Inc., priority 2018, dated 2020)

Biological target: PD-1/PD-L1 (Homo sapiens (Human), UniProt Q9NZQ7)
Experiment: PD-1/PD-L1 biochemical protein-protein interaction assay (ALPHA)
Settings: 0.3 nM His tagged PD-L1, 2.5 nM biotinylated Fc-PD-1, 60 minutes at 25° C., read-out: IC50 PD-L1-PD1

Sequence of PD-1/PD-L1 (Q9NZQ7 19-238): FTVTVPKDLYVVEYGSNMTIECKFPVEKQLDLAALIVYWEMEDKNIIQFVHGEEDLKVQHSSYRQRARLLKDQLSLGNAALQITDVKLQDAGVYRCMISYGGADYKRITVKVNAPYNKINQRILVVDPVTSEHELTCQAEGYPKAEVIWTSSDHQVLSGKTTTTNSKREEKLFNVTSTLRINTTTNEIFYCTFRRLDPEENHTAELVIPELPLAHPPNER

SMILES | IC50
COc1nc(-c2cccc(-c3cccc(-c4cnc(CNC[C@@H]5CCC(=O)N5)c(OC)n4)c3Cl)c2Cl)ccc1CN1CCC(C)(O)CC1 [compound 158] | 0.162 nM
COc1nc(-c2cccc(-c3cccc(-c4cnc(CNC[C@@H]5CCC(=O)N5)c(OC)n4)c3Cl)c2Cl)ccc1CN1CC[C@](C)(O)C1 [compound 159] | 0.15 nM
COc1nc(-c2cccc(-c3cccc(-c4cnc(CNC[C@@H]5CCC(=O)N5)c(OC)n4)c3Cl)c2Cl)ccc1CNCc1nc(=O)o[nH]1 [compound 161] | 0.167 nM
COc1nc(-c2cccc(-c3cccc(-c4cnc(CNC[C@@H]5CCC(=O)N5)c(OC)n4)c3Cl)c2Cl)ccc1CN1CCC(C(N)=O)CC1 [compound 163] | 0.177 nM
COc1nc(-c2cccc(-c3cccc(-c4cnc(CNC[C@@H]5CCC(=O)N5)c(OC)n4)c3Cl)c2Cl)ccc1CN[C@@H]1COC[C@H]1O [compound 165] | 0.187 nM
COc1nc(-c2cccc(-c3cccc(-c4cnc(CNC[C@@H]5CCC(=O)N5)c(OC)n4)c3Cl)c2Cl)ccc1CN[C@H]1CNC(=O)C1 [compound 166] | 0.233 nM
COc1nc(-c2cccc(-c3cccc(-c4cnc(CNC[C@@H]5CCC(=O)N5)c(OC)n4)c3Cl)c2Cl)ccc1CN[C@@H]1CNC(=O)C1 [compound 167] | 0.262 nM
COc1nc(-c2cccc(-c3cccc(-c4cnc(CNC[C@@H]5CCC(=O)N5)c(OC)n4)c3Cl)c2Cl)ccc1CN1CC2(CNC(=O)N2)C1 [compound 168] | 0.196 nM
COc1nc(-c2cccc(-c3cccc(-c4cnc(CNC[C@@H]5CCC(=O)N5)c(OC)n4)c3Cl)c2Cl)ccc1CN[C@H]1CCNC1=O [compound 169] | 0.344 nM
COc1nc(-c2cccc(-c3cccc(-c4cnc(CNC[C@@H]5CCC(=O)N5)c(OC)n4)c3Cl)c2Cl)ccc1CN[C@@H]1CCOC1 [compound 170] | 0.227 nM
COc1nc(-c2cccc(-c3cccc(-c4cnc(CNC[C@@H]5CCC(=O)N5)c(OC)n4)c3Cl)c2Cl)ccc1CN[C@H]1CCOC1 [compound 171] | 0.208 nM
COc1nc(-c2cccc(-c3cccc(-c4cnc(CNC[C@H]5C[C@@H](O)C5)c(OC)n4)c3Cl)c2Cl)cnc1CNC[C@@H]1CCC(=O)N1 [compound 172] | 0.222 nM
COc1nc(-c2cccc(-c3cccc(-c4cnc(CN5CC(OC)C5)c(OC)n4)c3Cl)c2Cl)cnc1CNC[C@@H]1CCC(=O)N1 [compound 173] | 0.209 nM
COc1nc(-c2cccc(-c3cccc(-c4cnc(CN5CCC(C)(O)C5)c(OC)n4)c3Cl)c2Cl)cnc1CNC[C@@H]1CCC(=O)N1 (some centres unmarked) [compound 174] | 0.219 nM
COc1nc(-c2cccc(-c3cccc(-c4cnc(CNC5CCC(F)C5)c(OC)n4)c3Cl)c2Cl)cnc1CNC[C@@H]1CCC(=O)N1 (some centres unmarked) [compound 177] | 0.33 nM
COc1nc(-c2cccc(-c3cccc(-c4cnc(CN[C@@H]5C[C@@H]5F)c(OC)n4)c3Cl)c2Cl)cnc1CNC[C@@H]1CCC(=O)N1 [compound 178] | 0.553 nM
COc1nc(-c2cccc(-c3cccc(-c4cnc(CNC[C@@H]5CCC(=O)N5)c(OC)n4)c3Cl)c2Cl)cnc1CNCC1CC1 [compound 179] | 0.211 nM

SMILES | IC50
COc1nc(-c2cccc(-c3cccc(-c4cnc(CN[C@@H]5C[C@@H]5C(F)F)c(OC)n4)c3Cl)c2Cl)cnc1CNC[C@@H]1CCC(=O)N1 [compound 180] | 1.03 nM
COc1nc(-c2cccc(-c3cccc(-c4cnc(CNC(C)(C)C(F)F)c(OC)n4)c3Cl)c2Cl)cnc1CNC[C@@H]1CCC(=O)N1 [compound 181] | 1.51 nM
COc1nc(-c2cccc(-c3cccc(-c4cnc(CNC5CC5)c(OC)n4)c3Cl)c2Cl)cnc1CNC[C@@H]1CCC(=O)N1 [compound 184] | 0.763 nM
COCC1(NCc2ncc(-c3cccc(-c4cccc(-c5cnc(CNC[C@@H]6CCC(=O)N6)c(OC)n5)c4Cl)c3Cl)nc2OC)CCC1 [compound 185] | 0.48 nM
COc1nc(-c2cccc(-c3cccc(-c4cnc(CN5C[C@H]6C[C@H]6[C@H]5CO)c(OC)n4)c3Cl)c2Cl)cnc1CNC[C@@H]1CCC(=O)N1 [compound 187] | 0.28 nM
COc1nc(-c2cccc(-c3cccc(-c4cnc(CNC5CC6(C5)CN(C(C)=O)C6)c(OC)n4)c3Cl)c2Cl)cnc1CNC1CC2(C1)CN(C(C)=O)C2 (centres unmarked) [compound 190] | 0.2 nM
COc1nc(-c2cccc(-c3cccc(-c4cnc(CN5CC6(C5)CN(C(C)=O)C6)c(OC)n4)c3Cl)c2Cl)cnc1CNC[C@H]1CCC(=O)N1 [compound 192] | 0.156 nM
COc1nc(-c2cccc(-c3cccc(-c4cnc(CNC[C@H]5CCC(=O)N5)c(OC)n4)c3Cl)c2Cl)cnc1CNCC1CNC(=O)C1 (some centres unmarked) [compound 196] | 0.17 nM
COc1nc(-c2cccc(-c3cccc(-c4cnc(CN5CCC6(CCC(=O)N6)C5)c(OC)n4)c3Cl)c2Cl)cnc1CNC[C@H]1CCC(=O)N1 (some centres unmarked) [compound 197] | 0.23 nM
COc1nc(-c2cccc(-c3cccc(-c4cnc(CNC[C@H]5CCC(=O)N5)c(OC)n4)c3Cl)c2Cl)cnc1CNCCc1ncc[nH]1 [compound 201] | 0.28 nM
COc1nc(-c2cccc(-c3cccc(-c4cnc(CNC5CC6(C5)CN(C(C)=O)C6)c(OC)n4)c3Cl)c2Cl)cnc1CNC[C@H]1CCC(=O)N1 [compound 208] | 0.223 nM
COc1nc(-c2cccc(-c3cccc(-c4cnc(CN5CC6(C5)CN(C(C)=O)C6)c(OC)n4)c3Cl)c2Cl)cnc1CN1CC2(C1)CN(C(C)=O)C2 [compound 209] | 0.175 nM
COc1nc(-c2cccc(-c3cccc(-c4cnc(CNCC5(C)COC(=O)N5)c(OC)n4)c3Cl)c2Cl)cnc1CNC[C@@H]1CCC(=O)N1 (some centres unmarked) [compound 210] | 0.3 nM
COc1nc(-c2cccc(-c3cccc(-c4cnc(CNC5CCc6cn[nH]c6C5)c(OC)n4)c3Cl)c2Cl)cnc1CNC[C@@H]1CCC(=O)N1 (some centres unmarked) [compound 212] | 0.48 nM
COc1nc(-c2cccc(-c3cccc(-c4cnc(CNCC5(C#N)CCC5)c(OC)n4)c3Cl)c2Cl)cnc1CNC[C@@H]1CCC(=O)N1 [compound 213] | 0.84 nM
COc1nc(-c2cccc(-c3cccc(-c4cnc(CNC[C@@H]5CCC(=O)N5)c(OC)n4)c3Cl)c2Cl)cnc1CNCCn1ccc(C)n1 [compound 214] | 0.26 nM

The remaining compounds from weak to strong by IC50, led by results:

IC50 | SMILES
0.149 nM | COc1nc(-c2cccc(-c3cccc(-c4cnc(CNC5CCN(C(C)=O)C5)c(OC)n4)c3Cl)c2Cl)cnc1CNC[C@H]1CCC(=O)N1 (some centres unmarked) [compound 194]
0.144 nM | COc1nc(-c2cccc(-c3cccc(-c4cnc(CNC5CCC6(CNC(=O)C6)C5)c(OC)n4)c3Cl)c2Cl)cnc1CNC[C@H]1CCC(=O)N1 (some centres unmarked) [compound 202]
0.143 nM | COc1nc(-c2cccc(-c3cccc(-c4cnc(CNC5CN(C(C)=O)C5)c(OC)n4)c3Cl)c2Cl)cnc1CNC[C@@H]1CCC(=O)N1 [compound 191]
0.133 nM | COc1nc(-c2cccc(-c3cccc(-c4cnc(CN5CCC6(CNC(=O)C6)C5)c(OC)n4)c3Cl)c2Cl)cnc1CNC[C@H]1CCC(=O)N1 (some centres unmarked) [compound 193]
0.132 nM | COc1nc(-c2cccc(-c3cccc(-c4cnc(CN[C@H]5CNC(=O)C5)c(OC)n4)c3Cl)c2Cl)cnc1CNC[C@H]1CCC(=O)N1 [compound 200]
0.129 nM | COc1nc(-c2cccc(-c3cccc(-c4cnc(CN5CCC6(CCC(=O)N6)CC5)c(OC)n4)c3Cl)c2Cl)cnc1CNC[C@H]1CCC(=O)N1 [compound 203]
0.128 nM | COc1nc(-c2cccc(-c3cccc(-c4cnc(CNC[C@@H]5CCC(=O)N5)c(OC)n4)c3Cl)c2Cl)ccc1CN1CCC(CO)CC1 [compound 160]
0.126 nM | COc1nc(-c2cccc(-c3cccc(-c4cnc(CN[C@@H]5CNC(=O)C5)c(OC)n4)c3Cl)c2Cl)cnc1CNC[C@H]1CCC(=O)N1 [compound 199]
0.122 nM | COc1nc(-c2cccc(-c3cccc(-c4cnc(CNC[C@@H]5CCC(=O)N5)c(OC)n4)c3Cl)c2Cl)ccc1CN1CC(O)C1 [compound 164]
0.121 nM | COc1nc(-c2cccc(-c3cccc(-c4cnc(CN5CC[C@@H](NC(C)=O)C5)c(OC)n4)c3Cl)c2Cl)cnc1CNC[C@H]1CCC(=O)N1 [compound 198]
0.12 nM | COC(=O)NC1CCN(Cc2ncc(-c3cccc(-c4cccc(-c5cnc(CNC[C@@H]6CCC(=O)N6)c(OC)n5)c4Cl)c3Cl)nc2OC)C1 (some centres unmarked) [compound 188]
0.116 nM | COc1nc(-c2cccc(-c3cccc(-c4cnc(CNC[C@@H]5CCC(=O)N5)c(OC)n4)c3Cl)c2Cl)ccc1CNC1CCOCC1 [compound 162]
0.113 nM | COc1nc(-c2cccc(-c3cccc(-c4cnc(CNC5CCN(C(C)=O)CC5)c(OC)n4)c3Cl)c2Cl)cnc1CNC[C@H]1CCC(=O)N1 [compound 206]
0.111 nM | COc1nc(-c2cccc(-c3cccc(-c4cnc(CN5CC(CO)C5)c(OC)n4)c3Cl)c2Cl)cnc1CNC[C@@H]1CCC(=O)N1 [compound 176]
0.11 nM | COc1nc(-c2cccc(-c3cccc(-c4cnc(CN5CC(C)(CO)C5)c(OC)n4)c3Cl)c2Cl)cnc1CNC[C@@H]1CCC(=O)N1 [compound 175]
0.11 nM | COc1nc(-c2cccc(-c3cccc(-c4cnc(CN5CC[C@H](NC(C)=O)C5)c(OC)n4)c3Cl)c2Cl)cnc1CNC[C@H]1CCC(=O)N1 [compound 204]
0.104 nM | COc1nc(-c2cccc(-c3cccc(-c4cnc(CN5CC6(CNC(=O)N6)C5)c(OC)n4)c3Cl)c2Cl)cnc1CNC[C@H]1CCC(=O)N1 [compound 207]
0.1 nM | COc1nc(-c2cccc(-c3cccc(-c4cnc(CNC[C@H]5CCC[C@@H]5O)c(OC)n4)c3Cl)c2Cl)cnc1CNC[C@@H]1CCC(=O)N1 [compound 186]
0.095 nM | COc1nc(-c2cccc(-c3cccc(-c4cnc(CNC[C@@H]5CCC(=O)N5)c(OC)n4)c3Cl)c2Cl)cnc1CNCCN1CCNC1=O [compound 211]
0.094 nM | COc1nc(-c2cccc(-c3cccc(-c4cnc(CNCC5CN(C(C)=O)C5)c(OC)n4)c3Cl)c2Cl)cnc1CNCC1CN(C(C)=O)C1 [compound 189]
0.079 nM | COc1nc(-c2cccc(-c3cccc(-c4cnc(CNC5CCCN(C(C)=O)C5)c(OC)n4)c3Cl)c2Cl)cnc1CNC[C@H]1CCC(=O)N1 (some centres unmarked) [compound 205]
0.064 nM | COc1nc(-c2cccc(-c3cccc(-c4cnc(CNC[C@@H]5CCC(=O)N5)c(OC)n4)c3Cl)c2Cl)ccc1CN1CC(CO)C1 [compound 157]
0.064 nM | COc1nc(-c2cccc(-c3cccc(-c4cnc(CN[C@H]5CC[C@H](NC(C)=O)CC5)c(OC)n4)c3Cl)c2Cl)cnc1CNC[C@H]1CCC(=O)N1 [compound 195]
